The source made the active and inactive calls. No rule for the calls is given here.
Tested on: HEK293 cytotoxicity, cell viability
Assay: cytotoxicity toward HEK293 cells, SAR follow-up, cell-based, revised (AID 2335)

Cn1nccc1C(=O)NC1CCCc2c1cnn2-c1ccccc1F (stereo unspecified)
IC50: > 20 µM (inactive)

Source: PubChem BioAssay AID2335 (Sanford-Burnham Center for Chemical Genomics, 2010)
